What was measured:
Class I PI3-kinases = conditions: Fruman et al., 1998; read-out: IC50 against each of the various Class I PI3-kinases; cited from earlier work
[1] = biological target: Human recombinant GST-PI3δ (Homo sapiens (Human), UniProt O00329); assay: PI3K induced-lipid phosphorylation scintillation proximity assay (neomycin-coated SPA beads); format: biochemical
Text: The efficacy of compounds of the invention in inhibiting the PI3K induced-lipid phosphorylation may be tested in the following binding assay.
The assay combines the scintillation proximity assay technology (SPA, Amersham) with the capacity of neomycin (a polycationic antibiotic) to bind phospholipids with high affinity and specificity. The Scintillation Proximity Assay is based on the properties of weakly emitting isotopes (such as ^3H, ^125I, ^33P). Coating SPA beads with neomycin allows the detection of phosphorylated lipid substrates after incubation with recombinant PI3K and radioactive ATP in the same well, by capturing the radioactive phospholipids to the SPA beads through their specific binding to neomycin.
To a 96 wells MTP containing 10 μl of the test compound of Formula (I) (solubilized in 10% DMSO; to yield a concentration of 100, 25, 5.0, 1.25, 0.312, 0.078, 0.0195, 0.00488, 0.00122 and 0.0003 μM of the test compound), the following assay components are added: 1) 10 μl of lipid micelles 2) 20 μl of Kinase buffer ([^33P]γ-ATP 162 μM/300 nCi, MgCl2 2.5 mM, DTT 2.5 mM, Na3VO4 25 μM in Hepes 40 mM, pH 7.4) and 3) 10 μl (100 ng) of Human recombinant GST-PI3δ (in Hepes 40 mM, pH 7.4, ethylenglycol 4%). After incubation at room temperature for 120 minutes, with gentle agitation, the reaction is stopped by addition of 200 μl of a solution containing 250 μg of neomycin-coated PVT SPA beads, ATP 60 mM and EDTA 6.2 mM in PBS. The assay is further incubated at room temperature for 60 minutes with gentle agitation to allow binding of phospholipids to neomycin-SPA beads. After precipitation of the neomycin-coated PVT SPA beads for 5 minutes at 1500×g, radioactive PtdIns(3)P is quantified by scintillation counting in a Wallac MicroBeta™ plate counter.
The values indicated in Table I below refer to the IC50 (μM) with respect to PI3K, i.e. the amount necessary to achieve 50% inhibition of said target. Said values show a considerable inhibitory potency of pyrazine compounds with regard to PI3K.

[2] = tested on: PKB/Akt phosphorylation in mast cells; assay: SCF-induced PKB/Akt phosphorylation in mast cells; format: cell-based, mice; conditions: Mast cell, 0.25 h; mast cells derived from mouse bone marrow, 20 ng/mL SCF for 15 minutes; read-out: IC50, inhibition of SCF-induced Akt Phosphorylation
Procedure: Protocol: Primary bone marrow cells were isolated from 4-8 weeks old wild type mice and derived to mast cells by incubation with medium containing 20 ng/mL of stem cell factor (SCF) (PeproTech, Switzerland) and 20 ng/mL of IL-3 (PeproTech, Switzerland) for at least 4 weeks. Confirmation of the expression of mast cell specific surface markers was done by FACS analysis using antibodies against c-kit (cKit-PE mouse antibody; Pharmingen). Cells were maintained in culture in the presence of SCF and IL-3. To induce PKB/Akt phosphorylation, mast cells were resuspended at 2.5×10^6 cells/mL and starved in medium containing no SCF or IL-3 for 24 h. After preincubation with compounds or 1% DMSO for 20 minutes, cells were activated with 20 ng/mL of SCF for 15 minutes at 37° C., fixed in 1.5% paraformaldehyde for 20 minutes and permeabilised with 0.2% Triton X-100 for 10 minutes, at room temperature. PKB/Akt phosphorylation was visualized using phospho-Ser-473 specific Akt antibodies (Cell Signaling) and standard FACS protocols.

[3] = tested on: Akt phosphorylation in B cells; assay: IgM-induced Akt phosphorylation in B cell (human PBMC, flow cytometry); format: cell-based; conditions: 5 min, CD19+ IgM+ B cells in human PBMC, anti IgM for 5 minutes, read-out: IC50, inhibition of IgM-induced Akt Phosphorylation
Procedure: Human PBMC were prepared from a Buffy coat (Geneve Hospital) after a Ficoll gradient (FICOLL-PAQUE Plus PHARMACIA ref: 17-1440-03).
Cell concentration was adjusted to 10^6 cells per ml in RPMI (GIBCO Ref: 72400-21) without serum. Before stimulation, 90 μl of PBMC suspension was incubated with 10 μl of diluted compound in a 96 well round bottom plate for 20 minutes at 37° C.
For B cell activation, 30 μl of Fab′2 Goat anti IgM (Jackson Immuno-research) at 10 μg/ml was added to each well. After 5 minutes, cell activation was stopped with 4% paraformaldehyde (10 minutes at room temperature).
Fixed PBMC were then treated for 20 minutes with 0.15% Triton, washed twice with PBS and permeabilized with 50% methanol for 15 minutes.
PBMC were washed twice in PBS, resuspended in: PBS-4% FCS and incubated with anti P-Akt (1/100 dilution) for one hour at room temperature.
After one wash, PBMC were further stained for 30 minutes with a mixture of anti-CD19-PE (BD Biosciences), anti-IgM-FITC (BD Biosciences) and goat anti rabbit IgG-Alexa 647 (Molecular probe).
After washing, PBMC (Peripheral Blood Mononuclear Cells) were analysed on a FACSCalibur instrument (BD Biosciences) equipped with a 633 helium-neon laser, or stored at 4° C. for further analysis. 510^3 B cells events were gathered per sample in the CD19 positive region.
For the analysis, a threshold was applied on P-Akt histogram of CD 19+ IgM+ lymphocytes cells from the non-stimulated samples and the percentage of cells above this threshold was determined for each sample.

Female Balb/c mice = assay: Passive cutaneous anaphylaxis (PCA); format: in vivo; conditions: 30 mg/kg oral route, 2 hours before challenge
Procedure: Female Balb/c mice (Elevage Janvier) (8 week old) were intradermally injected by anti-DNP IgE (50 ng in 20 μl, id, 2 sites of injection) on their shaved backs. Twenty four hours later they received an intravenous injection of DNP-human serum albumin (50 μg/mouse) and Evans blue (25 mg/kg) by retroorbital injection. Thirty minutes later, the animals were sacrificed. The skin of the back was removed. The extravasated dye (punch diameter: 5 mm) was extracted from 2 punches by 0.4 ml of formamide and was quantified by fluorescence (E1: 585 nm, E2: 660 nm).
Inhibitors are administered by oral route at the dose of 30 mg/kg 2 hours before the challenge of DNP-human serum albumin and Evans blue.

Chain of Human recombinant GST-PI3δ (O00329 whole entry): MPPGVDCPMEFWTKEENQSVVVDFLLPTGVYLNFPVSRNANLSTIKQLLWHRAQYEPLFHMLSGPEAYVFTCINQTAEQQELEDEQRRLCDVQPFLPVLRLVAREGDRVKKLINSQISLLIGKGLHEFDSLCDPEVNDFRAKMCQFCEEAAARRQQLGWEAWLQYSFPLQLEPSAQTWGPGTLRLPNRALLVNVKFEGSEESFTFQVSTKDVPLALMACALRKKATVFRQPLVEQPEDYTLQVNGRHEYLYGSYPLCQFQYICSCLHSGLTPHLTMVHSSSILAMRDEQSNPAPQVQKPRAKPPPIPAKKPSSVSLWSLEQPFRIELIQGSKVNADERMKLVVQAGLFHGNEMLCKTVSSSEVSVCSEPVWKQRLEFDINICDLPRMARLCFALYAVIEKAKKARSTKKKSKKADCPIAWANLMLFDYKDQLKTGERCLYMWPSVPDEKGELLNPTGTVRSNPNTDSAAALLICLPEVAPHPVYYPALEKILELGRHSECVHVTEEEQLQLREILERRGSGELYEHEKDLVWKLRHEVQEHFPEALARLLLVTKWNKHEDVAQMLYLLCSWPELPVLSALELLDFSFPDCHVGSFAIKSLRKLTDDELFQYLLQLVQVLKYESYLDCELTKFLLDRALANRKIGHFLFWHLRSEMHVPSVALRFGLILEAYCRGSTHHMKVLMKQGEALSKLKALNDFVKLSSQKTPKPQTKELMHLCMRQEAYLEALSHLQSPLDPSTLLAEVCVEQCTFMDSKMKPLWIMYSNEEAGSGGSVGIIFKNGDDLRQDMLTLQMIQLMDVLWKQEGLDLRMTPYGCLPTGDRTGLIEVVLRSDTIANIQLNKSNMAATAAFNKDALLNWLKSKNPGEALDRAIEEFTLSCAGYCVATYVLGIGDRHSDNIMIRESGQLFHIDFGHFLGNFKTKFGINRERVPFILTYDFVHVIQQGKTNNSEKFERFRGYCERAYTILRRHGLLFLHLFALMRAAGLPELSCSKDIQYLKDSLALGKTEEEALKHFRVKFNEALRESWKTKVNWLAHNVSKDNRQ

IC50 [1] [nM] | IC50 [2] [nM] | IC50 [3] [nM] | SMILES | IC50 (Class I PI3-kinases) [nM] | inhibition of vascular permeability (Female Balb/c mice) [%]
 |  |  | COC[C@H]1OC(=O)c2coc3c2[C@@]1(C)C1=C(C3=O)[C@@H]2CCC(=O)[C@@]2(C)C[C@H]1OC(C)=O [Wortmannin] | 1 to 10 | 
27 | 180 | 16 | COc1cc(Nc2nc3ccccc3nc2NS(=O)(=O)c2ccc(CN(C)C)cc2)cc(OC)c1 [Example 138, N-{3-[(3,5-dimethoxyphenyl)amino]quinoxalin-2-yl}-4-[(dimethylamino)methyl]benzenesulfonamide] |  | 
240 |  |  | COc1ccc(OC)c(Nc2nc3ccccc3nc2NS(=O)(=O)c2ccc3c(c2)sc(=O)n3C)c1 [Example 29, N-{3-[(2,5-dimethoxyphenyl)amino]quinoxalin-2-yl}-3-methyl-2-oxo-2,3-dihydro-1,3-benzothiazole-6-sulfonamide] |  | 
56 | 1190 | 21 | COc1ccc(OC)c(Nc2nc3ccccc3nc2NS(=O)(=O)c2cccnc2)c1 [Example 65, N-{3-[(2,5-dimethoxyphenyl)amino]quinoxalin-2-yl}pyridine-3-sulfonamide] |  | 84
80 |  | 30 | COc1ccc(OC)c(Nc2nc3ccccc3nc2NS(=O)(=O)c2cn(C)cn2)c1 [Example 13, N-{3-[(2,5-dimethoxyphenyl)amino]quinoxalin-2-yl}-1-methyl-1H-imidazole-4-sulfonamide] |  | 
430 |  |  | COc1ccc(OC)c(Nc2nc3ccccc3nc2NS(=O)(=O)c2cccc(C#N)c2)c1 [Example 11, 3-Cyano-N-{3-[(2,5-dimethoxyphenyl)amino]quinoxalin-2-yl}benzene sulfonamide] |  | 
73 |  |  | COc1ccc(OC)c(Nc2nc3ncccc3nc2NS(=O)(=O)c2ccccc2)c1 [Example 86, N-{3-[(2,5-dimethoxyphenyl)amino]pyrido[2,3-b]pyrazin-2-yl}benzene sulfonamide] |  | 
30 |  |  | COc1cc(Nc2nc3ccccc3nc2NS(=O)(=O)c2cccc(C(=O)NCCCN(C)C)c2)cc(OC)c1 [Example 144, 3-[({3-[(3,5-dimethoxyphenyl)amino]quinoxalin-2-yl}amino)sulfonyl]-N-[3-(dimethylamino)propyl]benzamide] |  | 
